Experimental data reported in patent publication US20180272042A1, “DRUG-POLYMER FILM FOR CONTROLLED LOCAL DELIVERY AT TISSUE-DEVICE INTERFACE” (Brown University, priority 2017, published 2018).

Test system: oxidative stress
Assay: oxidative stress in vitro model
Format: cell-based
Conditions: pterostilbene compared with resveratrol

Oc1ccc(C=Cc2cc(O)cc(O)c2)cc1 [resveratrol]
treatment of oxidative stress: comparable
